Source: US20220016196A1, “Aloe Based Compositions Comprising Polysaccharides and Polyphenols for Regulation of Homeostasis of Immunity” (Unigen, Inc., priority 2020, published 2022)
pIC50: −log10 of the molar value.

Legend:
HMGB1 = experiment: Inhibition of hyperoxia-induced HMGB1 release from macrophages (ELISA); format: cell-based, mouse; settings: RAW 264.7 cells, 95% O2 24 hours, test substance 25 μg/mL, ELISA of supernatant
Protocol: Macrophages cultured under hyperoxic conditions experience oxidative stress, causing them to secrete HMGB1 to the cell culture media. To determine the efficacy of the Aloe-based composition and its components in reducing the accumulation of extracellular HMGB1 of cultured macrophages, RAW 264.7 cells were exposed for 24 hours to either 21% O2 (room air (RA)), or 95% O2 in the presence or absence of test substance at 25 μg/mL concentration. HMGB1 levels in cell culture supernatants were determined by ELISA at a single concentration of test substance in duplicate. The data are expressed as mean±SEM of one experiment assayed in duplicate. *p<0.05, **p<0.01, ****p<0.0001 compared to macrophages treated under hyperoxia with vehicle only. Control cells were treated with Sodium Salicylate (SS) as a positive control, which attenuates hyperoxia-compromised macrophage function and oxidative-stress-induced HMGB 1 release.

RAW 264.7 cells [1] = experiment: Hyperoxia-induced dysfunctional macrophage phagocytosis assay; format: cell-based, mouse; settings: RAW 264.7, 95% O2 24 hours, beads per cell as percent increase
Protocol: RAW 264.7 cells either remained at room air (21% O2) or were exposed to 95% O2 for 24 hours in the presence of test substance. Cells were then incubated with FITC-labeled latex mini-beads for 1 hour and stained with phalloidin and DAPI to visualize the actin cytoskeleton and nuclei, respectively. For quantification of phagocytic activity, at least 200 cells per group were counted and the numbers of beads per cell were represented as a percent increase compared to the 21% 02 (0 μg/ml) control group. Each value represents the mean±SEM of 3 independent experiments for each group, in duplicate. *, P<0.05 compared to the 21% O2 (0 μg/ml) control group.

[2] = tested on: HSF cells (Human fibroblasts); experiment: DNA damage of human fibroblasts induced by hydrogen peroxide (γH2AX); format: cell-based; settings: γH2AX staining, H2O2 1 mM 4 h
Protocol: HSF cells (Human fibroblasts) were seeded in 96-well tissue culture plates and incubated at 37° C. and in 5% CO2 and 95% air with test substances. Treated HSF cells were subjected to DNA damage by incubating with H2O2 at a concentration of 1 mM for 4 h, then immunostained for γH2AX, a phosphorylated histone that is a marker of DNA double strand breaks. DAPI was used to stain the cell nucleus. Pictures taken by Image Xpress and analyzed with Meta Xpress. Catechin (100 μg/ml) was used as positive control with 70% reduction of DNA damage, as assessed by quantification of γH2AX staining. […]. Rosmarinic acid reduced DNA damage by 24% at 25 μg/mL.

HaCaT cells [3] = experiment: Cytotoxicity (CCK viability) in HaCaT cells; format: cell-based, human; settings: 25 μg/mL
Protocol: (§1) HaCaT cells (Human immortal keratinocyte cells) were seeded at a density of 8,000 cells/well in 96-well tissue culture plates and treated for 24 hours with test substance at 25 μg/mL. Cytotoxicity was evaluated to remove false positives (CCK >80% viability). DCFH-DA (a fluorescent probe) was added to cells to detect ROS production and incubated at 37° C. for 25 minutes. After exposure to UV irradiation under the solar simulator (Sol-UV-6 Solar Simulator) with ultraviolet filter for 10 minutes, the fluorescence value was measured at 488 nm (excitation) and 525 nm (emission) by Multimode Reader. Vitamin C was used as positive control treated at 40 μg/mL with 43% reduction of ROS production. At 25 μg/mL, Rosmarinic acid decreased ROS generation by 24%, compared to the level of UV exposed HaCaT cells. Organic extracts (OE) were tested at 50 μg/mL, while aqueous extracts were tested at 100 μg/mL. Fractions or pure compounds were tested at 25 μg/mL in this assay.

RAW 264.7 cells [4] = experiment: MTT assay in cultured RAW 264.7 cells under hyperoxia; format: cell-based, mouse; settings: RAW 264.7, 95% O2 24 hours
Protocol: Cell viability was determined by MTT assay.

HaCaT cells [5] = experiment: UVA&UVB induced ROS assay in HaCaT cell; format: cell-based, human; settings: positive control, 40 μg/mL
Protocol: as §1, with “Cytotoxicity was evaluated to remove false positives (CCK >80% viability).” left out, “Vitamin C was used as positive control treated at 40 μg/mL with 43% reduction of ROS production. At 25 μg/mL, Rosmarinic acid decreased ROS generation by 24%, compared to the level of UV exposed HaCaT cells.” left out

[6] = DPPH assay, 100 mg/L (Hu et al., 2003); cited from earlier work
phospholipase A2 = phospholipase A2 from snake venom (Cuéllar et al 1996); cited from earlier work
[7] = tested on: Pseudomonas aeruginosa (PA) infected hyperoxic mice; experiment: Hyperoxia-induced mortality in Pseudomonas aeruginosa (PA)-infected mice; format: in vivo, mouse
[8] = tested on: hyperoxic and PA infected mice; experiment: Oxidative stress-exacerbated acute lung injury induced by bacterial infection (BAL total protein, biomarkers, histology); format: in vivo, mouse; settings: hyperoxia + PA infected mice, Resveratrol 50 mg/kg
Pseudomonas aeruginosa = experiment: Bacterial clearance in the airways in hyperoxic and PA infected mice; format: in vivo, mouse; settings: 24 hours after infection
[9] = tested on: acute ear edema induced by tetradecanoyl phorbol acetate (TPA); settings: acute ear edema induced by TPA (Cuellar et al 1997); cited from earlier work

`CC(=O)Cc1cc(=O)c2c(C)cc(O)c([C@@H]3O[C@H](CO)[C@@H](O)[C@H](O)[C@H]3O)c2o1` [Aloesin] showed an HMGB1 inhibition (HMGB1) of 52.47.
In the case of `O=C(/C=C/c1ccc(O)c(O)c1)O[C@H](Cc1ccc(O)c(O)c1)C(=O)O` [Rosmarinic acid], the inhibition at 25 µg/mL (HMGB1; Mus musculus, RAW264.7) was 73%, the Phagocytosis (RAW 264.7 cells [1]; 12 μg/mL) was 51.00% and the Phagocytosis (RAW 264.7 cells [1]; 25 μg/mL) was 74.35%. The “reduction of DNA damage” value ([2]; 25 μg/mL) was 24%, the “Viability (%)” value (HaCaT cells [3]) was 57% and the “MTT (% reduction)” value (RAW 264.7 cells [4]; 12 μg/mL) was 5.63%. For the same compound, the “MTT (% reduction)” value (RAW 264.7 cells [4]; 25 μg/mL) was 13.47%, the “MTT (% reduction)” value (RAW 264.7 cells [4]; 50 μg/mL) was 20.03% and the “MTT (% reduction)” value (RAW 264.7 cells [4]; 100 μg/mL) was 20.53%.
For `O=C1O[C@H]([C@@H](O)CO)C(O)=C1O` [Vitamin C], the “reduction of ROS production” value (HaCaT cells [5]) was 43%.
For `Cc1c(C)c2c(c(C)c1O)CC[C@@](C)(CCC[C@H](C)CCC[C@H](C)CCCC(C)C)O2` [a-tocopherol], the radical scavenging activity [6] is listed as 65.20%.
For `Cc1cc(C(C)(C)C)c(O)c(C(C)(C)C)c1` [butylated hydroxytoluene], the radical scavenging activity [6] is given as 70.52%.
In the case of `C=C(CC[C@@H](C(=O)O)[C@H]1[C@H](O)C[C@@]2(C)C3=CC[C@H]4C(C)(C)[C@@H](O)CC[C@]4(C)C3=CC[C@]12C)C(C)C` [dehydrotumulosic acid], the pIC50 (phospholipase A2) is given as 3.07.
`Oc1ccc(C=Cc2cc(O)cc(O)c2)cc1` [resveratrol] gave a mortality rate ([7]; 7 days prophylactic treatment, hyperoxia 2 days, PA inoculated, 24 hours post-inoculation) of 27%, a Dead animals ([7]; RES 50 mg/kg, hyperoxia + PA inoculation, 11 total animals) of 3 and a Mortality % ([7]; RES 50 mg/kg, hyperoxia + PA inoculation, 24 hours post-inoculation) of 27.27%. For the same compound, the lung injury [8] was “significantly reduce lung injury”, the “Bacterial load in the airways, ×10^5 CFU/mL (Mean ± SE)” value (Pseudomonas aeruginosa; RES 50 mg/kg, hyperoxic and PA infected mice) was 2.4 ± 0.7 ×10^5 CFU/mL and the “bacterial load in the airways vs hyperoxia + vehicle (O2)” value (Pseudomonas aeruginosa; UP360 500 mg/kg, Resveratrol 50 mg/kg oral, >99% O2 48 hours, PA intranasal) was “airway bacterial load was significantly lower”.
In the case of Catechin, the “reduction of DNA damage” value ([2]; 100 μg/ml) was 70%.
In the case of hydrotumulosic acid, the IC50 [9] is listed as 0.68 nmol/ear.
